From patent US7078400B2, “20-HETE synthase inhibitor” (Taisho Pharmaceutical Co., Ltd., priority 1999, dated 2006)

Columns and labels:
[1] = test system: 20-HETE synthase originated from rat kidney microsome; test: Inhibitory effect of 20-HETE synthase originated from rat kidney microsome; format: biochemical; conditions: rat kidney microsome; for Inhibition rate (1 μM): 20-HETE production without compound set to 100%; for IC50: concentration at which production of 20-HETE was inhibited to 50%
Method: Experimental Example [Inhibitory effect of 20-HETE synthase originated from rat kidney microsome]
Regarding the compounds listed in Table 1, their inhibitory activity to production of 20-HETE was examined.
The subject compound for this examination was added to a buffer comprising 50 mM of 3-morpholinopropane sulfonic acid (pH7.4), 5 mM of magnesium chloride and 1 mM of ethylenediaminetetraacetic acid (EDTA) disodium salt.
After that, the rat kidney microsome (microsome fraction prepared from the kidney of a spontaneous hypertension rat (male, 6 weeks of age)) as an enzyme, [5,6,8,9,11,12,14,15] tritium-arachidonic acid (supplied by Amasham) as a substrate, and NADPH (supplied by Sigma) as a coenzyme were added and reacted for 1.5 hours at 37° C.
After the reaction, formic acid was added to stop the reaction, and then acetonitrile (final concentration of 50%) was added and left for 1.5 hours at room temperature.
The activity of 20-HETE synthase was measured by using a high performance liquid chromatograph having a detector for radioactive substances (supplied by Gilson), and equipped with a C18 reversed phase column (Biocyl C18, supplied by Bio-rad).

[2] = 1 μM of the subject compound added

| melting point | IC50 [1] | Compound | Inhibition rate (1 μM) [1, 2] | Inhibition rate (1 μM) ([1]; 1 μM of subject compound) |
| --- | --- | --- | --- | --- |
| 113.5 to 114.5 °C | – | CC(C)(C)c1ccc(N/C=N/O)cc1 [Comp. 2, N-(4-tert-butylphenyl)-N′-hydroxy-formamidine] | – | – |
| 84.5 to 85.5 °C | – | CCCCc1ccccc1N/C=N/O [Comp. 3] | 98.9 | – |
| 101 to 102.5 °C | – | CCC(C)c1ccc(N/C=N/O)cc1 (stereo not drawn) [Comp. 4] | – | – |
| 153 to 154 °C | 3.8 nM | O/N=C/Nc1ccc(C2CCCCC2)cc1 [Comp. 5] | 99.9 | – |
| 119.5 to 120.5 °C | – | COc1ccc(C(C)(C)C)cc1N/C=N/O [Comp. 6] | 99.9 | – |
| 122.5 to 124 °C | 12.1 nM | CCCCCc1ccc(N/C=N/O)cc1 [Comp. 7] | 110.5 | – |
| 141 to 142 °C | – | CC(C)(C)c1ccccc1N/C=N/O.Cl [Comp. 8] | 99.9 | – |
| 108 to 110 °C | – | CCCCCCc1ccc(N/C=N/O)cc1 [Comp. 9] | – | – |
| 143.5 to 144.5 °C | – | Cc1ccc(N/C=N/O)cc1 [Comp. 10] | – | – |
| 151 to 152.5 °C | 297 nM | Cc1ccc(N/C=N/O)c(Cl)c1 [Comp. 11] | 92.7 | – |
| 139.5 to 140.5 °C | 1420 nM | O/N=C/Nc1ccc(F)cc1 [Comp. 12] | 77.1 | – |
| 116 to 118 °C | 118 nM | Cc1ccc(N/C=N/O)cc1C [Comp. 13] | 95.9 | – |
| 151 to 153 °C | 163 nM | Cc1ccc(Cl)c(N/C=N/O)c1 [Comp. 14] | 91.7 | – |
| 155.5 to 156 °C | 288 nM | O/N=C/Nc1ccc(Cl)cc1 [Comp. 15] | 92.9 | – |
| 141 to 142 °C | – | CCc1ccc(N/C=N/O)cc1 [Comp. 16] | – | – |
| 136.5 to 139 °C | – | COc1ccc(C)cc1N/C=N/O [Comp. 17] | 85.3 | – |
| 139 to 140 °C | 45.2 nM | COc1ccc(N/C=N/O)cc1 [Comp. 18] | 94.6 | – |
| 144 to 145 °C | 338 nM | COc1ccc(N/C=N/O)c(C)c1 [Comp. 19] | 88.0 | – |
| 149 to 150 °C | 228 nM | CCOc1ccc(N/C=N/O)cc1 [Comp. 20] | 97.5 | – |
| 115.5 to 116.5 °C | – | CCc1cccc(N/C=N/O)c1 [Comp. 21] | 81.1 | – |
| 110 to 111.5 °C | 476 nM | O/N=C/Nc1cccc(Cl)c1 [Comp. 23] | 82.8 | – |

| melting point | IC50 [1] | Compound | Inhibition rate (1 μM) [1, 2] | Inhibition rate (1 μM) ([1]; 1 μM of subject compound) |
| --- | --- | --- | --- | --- |
| 119 to 120.5 °C | 520 nM | O/N=C/Nc1ccc(Cl)c(Cl)c1 [Comp. 24] | 89.2 | – |
| 142.5 to 144.5 °C | – | O/N=C/Nc1ccc(Cl)cc1F [Comp. 25] | 87.0 | – |
| 155 to 156.5 °C | 204 nM | COc1ccc(Cl)cc1N/C=N/O [Comp. 26] | 86.0 | – |
| 140.5 to 142 °C | 1.7 nM | O/N=C/Nc1ccc(C(F)(F)F)cc1 [Comp. 27] | 103.3 | – |
| 119 to 120.5 °C | 4.7 nM | CCCCCCCc1ccc(N/C=N/O)cc1 [Comp. 28] | 92.5 | – |
| 143 to 143.5 °C | – | CC(C)c1ccc(N/C=N/O)cc1 [Comp. 30] | – | – |
| 167 to 167.5 °C | – | COC(=O)c1ccc(N/C=N/O)cc1 [Comp. 37] | – | – |
| 155 to 156 °C | – | CCCc1cc(Br)c(N/C=N/O)c(Br)c1 [Comp. 48] | – | – |
| 145 to 146 °C | – | COc1cccc(C)c1N/C=N/O [Comp. 52] | – | – |
| 159 to 160 °C | – | CCc1cc(Br)cc(CC)c1N/C=N/O [Comp. 53] | – | – |
| 143 to 146 °C | – | COc1cc(N/C=N/O)cc(OC)c1OC [Comp. 103] | – | – |
| 137.5 to 138.5 °C | – | CCOC(=O)c1cccc(N/C=N/O)c1 [Comp. 127] | – | – |
| 183 to 183.5 °C | – | COC(=O)c1cc(N/C=N/O)cc(C(=O)OC)c1 [Comp. 129] | – | – |
| 116.5 to 117.5 °C | – | CCCCc1ccc(C)c(N/C=N/O)c1 [Comp. 133] | – | – |
| 165 to 165.5 °C | – | O/N=C/Nc1ccc2c(c1)OCO2 [Comp. 230] | – | – |
| 118 to 119.5 °C | – | O/N=C/Nc1ccc(Cc2ccccc2)cc1 [Comp. 233] | – | – |
| 130.5 to 131.5 °C | – | NS(=O)(=O)c1ccccc1N/C=N/O [Comp. 236, N-(2-aminosulfonylphenyl)-N′-hydroxyformamidine] | – | – |
| 177.5 to 178 °C | – | O/N=C/Nc1ccc(N2CCOCC2)c(Cl)c1 [Comp. 302] | – | – |
| – | – | O=c1ccc2cc(N/C=N/O)ccc2o1 [Comp. 304] | – | 68.5 |
| – | – | O=S(=O)(CCSc1ccccc1N/C=N/O)c1ccc(Cl)cc1 [Comp. 315] | – | 50.7 |
| 132 to 133 °C | – | CCCOc1ccc(N/C=N/O)cc1 [Comp. 317] | – | – |
